Assays:
Experiment in all cases: KINOMEscan competition binding
Conditions in all cases: compound 10.0 µM
[1] = target: PRKACA (human) (UniProt P17612)
[2] = target: EPHA5 (human) (UniProt P54756)
[3] = target: MAPK11 (human) (UniProt Q15759)
[4] = target: PRKX (human) (UniProt P51817)
[5] = target: ABL2 (human) (UniProt P42684)
[6] = target: FGFR4 (human) (UniProt P22455)
[7] = target: PIP4K2B (human) (UniProt P78356)
[8] = target: MAP2K2 (human) (UniProt P36507)
[9] = target: MAPK8 (human) (UniProt P45983)
[10] = target: LATS1 (human) (UniProt O95835)
[11] = target: RET (human) (UniProt P07949)
[12] = system: FLT3 (human), P36888 [N841I]
[13] = target: LYN (human) (UniProt P07948)
[14] = target: MAP3K4 (human) (UniProt Q9Y6R4)
[15] = target: AAK1 (human) (UniProt Q2M2I8)
[16] = target: RPS6KA2 KD2 (human) (UniProt Q15349)
[17] = target: STK32B (human) (UniProt Q9NY57)
[18] = target: TNIK (human) (UniProt Q9UKE5)
[19] = target: PIK3C2B (human) (UniProt O00750)
[20] = target: SRPK3 (human) (UniProt Q9UPE1)
[21] = target: SIK2 (human) (UniProt Q9H0K1)
[22] = target: PAK1 (human) (UniProt Q13153)
[23] = target: CSNK1G1 (human) (UniProt Q9HCP0)
[24] = target: TAOK1 (human) (UniProt Q7L7X3)
[25] = target: NUAK1 (human) (UniProt O60285)
[26] = target: ACVR1 (human) (UniProt Q04771)
[27] = target: CSNK1A1L (human) (UniProt Q8N752)
[28] = target: MAP4K5 (human) (UniProt Q9Y4K4)
[29] = target: RPS6KA3 KD1 (human) (UniProt P51812)
[30] = target: MAP3K3 (human) (UniProt Q99759)
[31] = target: MAP3K12 (human) (UniProt Q12852)
[32] = target: GSK3A (human) (UniProt P49840)
[33] = target: CAMK1G (human) (UniProt Q96NX5)
[34] = target: JAK1 JH1 catalytic (human) (UniProt P23458)
[35] = target: TNNI3K (human) (UniProt Q59H18)
[36] = target: AXL (human) (UniProt P30530)
[37] = target: MST1R (human) (UniProt Q04912)
[38] = target: CDC2L2 (human) (UniProt Q9UQ88)
[39] = target: CDK9 (human) (UniProt P50750)
[40] = target: YES1 (human) (UniProt P07947)

CAMK1G (human), sequence (Q96NX5 whole entry, looked up): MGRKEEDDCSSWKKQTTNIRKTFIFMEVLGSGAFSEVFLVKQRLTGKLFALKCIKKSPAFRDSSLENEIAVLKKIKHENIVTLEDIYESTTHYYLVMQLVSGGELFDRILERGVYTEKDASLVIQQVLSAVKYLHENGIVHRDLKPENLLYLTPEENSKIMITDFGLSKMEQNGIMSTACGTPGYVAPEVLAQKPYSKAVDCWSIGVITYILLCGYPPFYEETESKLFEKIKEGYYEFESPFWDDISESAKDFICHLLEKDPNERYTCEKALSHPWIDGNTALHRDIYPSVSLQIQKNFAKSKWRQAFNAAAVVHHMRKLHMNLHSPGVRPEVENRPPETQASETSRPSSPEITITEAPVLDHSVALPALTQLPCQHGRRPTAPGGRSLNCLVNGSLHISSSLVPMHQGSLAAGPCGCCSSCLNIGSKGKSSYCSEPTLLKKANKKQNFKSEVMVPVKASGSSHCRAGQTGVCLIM
STK32B (human), sequence (Q9NY57 whole entry, looked up): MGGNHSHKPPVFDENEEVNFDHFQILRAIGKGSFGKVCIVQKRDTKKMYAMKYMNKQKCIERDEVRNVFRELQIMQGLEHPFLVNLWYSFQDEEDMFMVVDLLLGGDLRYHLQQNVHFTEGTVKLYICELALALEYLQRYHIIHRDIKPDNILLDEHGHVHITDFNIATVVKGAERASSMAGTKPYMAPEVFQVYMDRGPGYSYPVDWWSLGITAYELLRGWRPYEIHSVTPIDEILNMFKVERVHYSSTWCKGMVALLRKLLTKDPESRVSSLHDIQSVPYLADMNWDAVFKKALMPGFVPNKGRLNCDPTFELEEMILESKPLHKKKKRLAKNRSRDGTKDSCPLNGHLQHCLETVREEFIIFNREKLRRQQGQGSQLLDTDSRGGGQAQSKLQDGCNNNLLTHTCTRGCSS
LATS1 (human), sequence (O95835 whole entry, looked up): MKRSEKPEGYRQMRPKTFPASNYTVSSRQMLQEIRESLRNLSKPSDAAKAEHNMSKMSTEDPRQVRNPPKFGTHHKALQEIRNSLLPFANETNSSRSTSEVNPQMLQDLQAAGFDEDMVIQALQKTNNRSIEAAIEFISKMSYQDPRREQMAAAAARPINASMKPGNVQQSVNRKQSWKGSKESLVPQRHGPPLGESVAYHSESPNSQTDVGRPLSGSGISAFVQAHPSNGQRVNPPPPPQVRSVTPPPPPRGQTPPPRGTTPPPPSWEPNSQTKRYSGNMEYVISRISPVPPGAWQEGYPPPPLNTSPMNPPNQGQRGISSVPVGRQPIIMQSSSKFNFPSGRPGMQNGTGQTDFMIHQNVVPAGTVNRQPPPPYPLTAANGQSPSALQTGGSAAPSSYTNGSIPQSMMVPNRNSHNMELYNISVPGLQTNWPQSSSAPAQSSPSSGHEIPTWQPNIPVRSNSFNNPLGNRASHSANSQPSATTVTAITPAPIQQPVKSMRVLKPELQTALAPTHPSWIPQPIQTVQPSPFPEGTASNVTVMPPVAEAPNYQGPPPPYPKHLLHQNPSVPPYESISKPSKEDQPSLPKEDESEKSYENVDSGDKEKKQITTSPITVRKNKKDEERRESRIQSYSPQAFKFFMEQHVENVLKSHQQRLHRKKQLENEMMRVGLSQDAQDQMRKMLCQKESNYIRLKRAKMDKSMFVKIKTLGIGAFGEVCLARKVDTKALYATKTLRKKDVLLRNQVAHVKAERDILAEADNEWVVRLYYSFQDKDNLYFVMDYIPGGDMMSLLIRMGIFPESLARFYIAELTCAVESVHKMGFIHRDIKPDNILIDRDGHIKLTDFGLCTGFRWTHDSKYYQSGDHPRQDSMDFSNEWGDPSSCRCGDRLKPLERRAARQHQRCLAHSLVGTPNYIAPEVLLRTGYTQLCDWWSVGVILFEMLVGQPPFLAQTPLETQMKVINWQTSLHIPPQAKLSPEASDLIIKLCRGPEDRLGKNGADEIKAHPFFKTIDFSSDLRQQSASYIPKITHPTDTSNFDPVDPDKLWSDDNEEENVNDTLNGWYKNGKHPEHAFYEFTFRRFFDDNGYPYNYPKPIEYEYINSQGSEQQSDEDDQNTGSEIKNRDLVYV
AXL (human), sequence (P30530 whole entry, looked up): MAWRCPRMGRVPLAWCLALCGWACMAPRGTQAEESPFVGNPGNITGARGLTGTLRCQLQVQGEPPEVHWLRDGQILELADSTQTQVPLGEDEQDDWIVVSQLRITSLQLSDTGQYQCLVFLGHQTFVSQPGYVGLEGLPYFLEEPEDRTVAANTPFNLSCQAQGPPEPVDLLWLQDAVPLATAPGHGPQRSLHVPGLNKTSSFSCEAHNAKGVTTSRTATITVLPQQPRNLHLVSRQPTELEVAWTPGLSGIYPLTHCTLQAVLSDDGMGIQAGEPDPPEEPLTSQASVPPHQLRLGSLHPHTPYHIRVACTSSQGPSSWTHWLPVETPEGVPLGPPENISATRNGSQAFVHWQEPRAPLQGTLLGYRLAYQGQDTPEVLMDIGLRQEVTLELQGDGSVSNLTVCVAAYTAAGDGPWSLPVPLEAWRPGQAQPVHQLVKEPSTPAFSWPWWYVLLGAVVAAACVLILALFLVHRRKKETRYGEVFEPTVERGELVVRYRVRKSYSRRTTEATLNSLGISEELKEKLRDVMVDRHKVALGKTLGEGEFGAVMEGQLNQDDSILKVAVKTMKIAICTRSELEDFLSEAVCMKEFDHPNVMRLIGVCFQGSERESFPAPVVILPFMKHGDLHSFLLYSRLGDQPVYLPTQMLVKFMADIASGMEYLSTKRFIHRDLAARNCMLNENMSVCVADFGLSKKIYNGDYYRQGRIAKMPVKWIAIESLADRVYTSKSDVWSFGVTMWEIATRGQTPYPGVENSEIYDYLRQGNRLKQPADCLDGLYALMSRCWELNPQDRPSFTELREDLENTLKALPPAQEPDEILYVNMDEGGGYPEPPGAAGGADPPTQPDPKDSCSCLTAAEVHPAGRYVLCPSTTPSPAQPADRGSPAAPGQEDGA
ACVR1 (human), sequence (Q04771 whole entry, looked up): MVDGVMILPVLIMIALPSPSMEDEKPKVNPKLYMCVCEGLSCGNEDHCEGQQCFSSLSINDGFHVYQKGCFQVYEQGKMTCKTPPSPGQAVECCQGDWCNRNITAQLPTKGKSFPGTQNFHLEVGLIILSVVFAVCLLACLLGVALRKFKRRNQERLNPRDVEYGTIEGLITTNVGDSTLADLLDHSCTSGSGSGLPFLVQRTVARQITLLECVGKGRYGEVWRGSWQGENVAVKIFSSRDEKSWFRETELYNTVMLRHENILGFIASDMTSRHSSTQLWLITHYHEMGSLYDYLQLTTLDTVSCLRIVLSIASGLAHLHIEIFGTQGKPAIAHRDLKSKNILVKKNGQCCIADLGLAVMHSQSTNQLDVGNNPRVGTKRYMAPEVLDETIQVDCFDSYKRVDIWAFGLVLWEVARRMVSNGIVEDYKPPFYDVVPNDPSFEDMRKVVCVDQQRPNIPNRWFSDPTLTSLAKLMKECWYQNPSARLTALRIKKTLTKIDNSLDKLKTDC
PIK3C2B (human), sequence (O00750 whole entry, looked up): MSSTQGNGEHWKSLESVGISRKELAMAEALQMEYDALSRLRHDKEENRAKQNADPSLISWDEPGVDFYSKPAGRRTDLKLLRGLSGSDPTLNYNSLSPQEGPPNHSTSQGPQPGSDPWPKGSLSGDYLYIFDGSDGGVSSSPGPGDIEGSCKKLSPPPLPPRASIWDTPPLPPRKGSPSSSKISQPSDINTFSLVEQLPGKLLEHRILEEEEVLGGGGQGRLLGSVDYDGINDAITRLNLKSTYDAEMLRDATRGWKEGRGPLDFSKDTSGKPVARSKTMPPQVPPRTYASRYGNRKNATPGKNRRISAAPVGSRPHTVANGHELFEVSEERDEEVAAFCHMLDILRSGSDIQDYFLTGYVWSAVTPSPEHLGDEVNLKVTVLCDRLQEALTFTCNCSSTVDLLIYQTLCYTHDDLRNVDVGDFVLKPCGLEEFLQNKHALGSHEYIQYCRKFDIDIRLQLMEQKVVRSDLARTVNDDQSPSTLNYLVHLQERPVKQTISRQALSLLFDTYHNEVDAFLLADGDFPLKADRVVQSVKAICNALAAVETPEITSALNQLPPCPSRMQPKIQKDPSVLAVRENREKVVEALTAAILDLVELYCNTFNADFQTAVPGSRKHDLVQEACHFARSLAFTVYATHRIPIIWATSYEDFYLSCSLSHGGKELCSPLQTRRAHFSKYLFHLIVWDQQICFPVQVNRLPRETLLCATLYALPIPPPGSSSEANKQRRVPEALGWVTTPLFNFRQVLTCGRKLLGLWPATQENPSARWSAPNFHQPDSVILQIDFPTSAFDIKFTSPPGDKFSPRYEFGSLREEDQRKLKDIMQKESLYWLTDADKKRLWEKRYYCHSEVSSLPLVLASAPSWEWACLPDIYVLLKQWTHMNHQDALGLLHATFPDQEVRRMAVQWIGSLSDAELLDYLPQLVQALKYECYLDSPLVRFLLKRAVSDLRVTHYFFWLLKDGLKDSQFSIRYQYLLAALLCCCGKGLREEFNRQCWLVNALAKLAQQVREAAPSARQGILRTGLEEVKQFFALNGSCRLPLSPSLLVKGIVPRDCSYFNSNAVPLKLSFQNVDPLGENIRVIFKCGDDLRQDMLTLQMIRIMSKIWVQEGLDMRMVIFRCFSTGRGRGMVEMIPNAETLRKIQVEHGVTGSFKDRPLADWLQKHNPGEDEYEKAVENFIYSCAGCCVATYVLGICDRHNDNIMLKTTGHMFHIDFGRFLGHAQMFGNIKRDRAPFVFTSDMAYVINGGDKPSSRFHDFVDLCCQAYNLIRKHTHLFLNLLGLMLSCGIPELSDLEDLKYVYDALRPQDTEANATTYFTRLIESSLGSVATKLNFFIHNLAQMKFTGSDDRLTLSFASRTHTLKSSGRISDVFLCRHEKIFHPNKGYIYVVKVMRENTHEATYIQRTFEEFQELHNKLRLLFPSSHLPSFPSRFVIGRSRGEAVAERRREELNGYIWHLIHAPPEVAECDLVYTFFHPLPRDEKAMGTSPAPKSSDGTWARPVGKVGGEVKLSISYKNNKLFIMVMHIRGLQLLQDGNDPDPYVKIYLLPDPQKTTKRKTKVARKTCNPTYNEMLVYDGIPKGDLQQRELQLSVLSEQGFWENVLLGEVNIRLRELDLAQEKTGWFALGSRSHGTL

| Structure (SMILES) | kinase still bound, per cent of control [1] | kinase still bound, per cent of control [2] | kinase still bound, per cent of control [3] | kinase still bound, per cent of control [4] | kinase still bound, per cent of control [5] | kinase still bound, per cent of control [6] | kinase still bound, per cent of control [7] | kinase still bound, per cent of control [8] | kinase still bound, per cent of control [9] | kinase still bound, per cent of control [10] | kinase still bound, per cent of control [11] | kinase still bound, per cent of control [12] | kinase still bound, per cent of control [13] | kinase still bound, per cent of control [14] | kinase still bound, per cent of control [15] | kinase still bound, per cent of control [16] | kinase still bound, per cent of control [17] | kinase still bound, per cent of control [18] | kinase still bound, per cent of control [19] | kinase still bound, per cent of control [20] | other results |
| --- | --- | --- | --- | --- | --- | --- | --- | --- | --- | --- | --- | --- | --- | --- | --- | --- | --- | --- | --- | --- | --- |
| COc1cc(N2CCN(C)CC2)ccc1Nc1nc(N)c(C(=O)c2c(Cl)cccc2Cl)s1 | 91% | 100% | 77% | 93% | 82% | 89% | 100% | 93% | 81% | 100% | 97% | 47% | 100% | 100% | 61% | 2.9% | 76% | 69% | 98% | 77% | kinase still bound, per cent of control [21]: 100%; kinase still bound, per cent of control [22]: 91%; kinase still bound, per cent of control [23]: 100%; kinase still bound, per cent of control [24]: 52%; kinase still bound, per cent of control [25]: 100%; kinase still bound, per cent of control [26]: 100%; kinase still bound, per cent of control [27]: 100%; kinase still bound, per cent of control [28]: 78%; kinase still bound, per cent of control [29]: 66%; kinase still bound, per cent of control [30]: 76%; kinase still bound, per cent of control [31]: 97%; kinase still bound, per cent of control [32]: 67%; kinase still bound, per cent of control [33]: 42%; kinase still bound, per cent of control [34]: 100%; kinase still bound, per cent of control [35]: 82%; kinase still bound, per cent of control [36]: 100%; kinase still bound, per cent of control [37]: 96% |
| Cn1c(=O)n(-c2ccc(C(C)(C)C#N)cc2)c2c3cc(-c4cnc5ccccc5c4)ccc3ncc21 | 100% | 100% | 100% | 100% | 100% | 100% | 100% | 100% | 100% | 100% | 100% | 100% | 100% | 100% | 100% | 100% | 100% | 100% | 2.8% | 100% | kinase still bound, per cent of control [38]: 100%; kinase still bound, per cent of control [39]: 100%; kinase still bound, per cent of control [21]: 100%; kinase still bound, per cent of control [22]: 100%; kinase still bound, per cent of control [23]: 100%; kinase still bound, per cent of control [24]: 100%; kinase still bound, per cent of control [25]: 30%; kinase still bound, per cent of control [26]: 100%; kinase still bound, per cent of control [27]: 100%; kinase still bound, per cent of control [28]: 100%; kinase still bound, per cent of control [40]: 100%; kinase still bound, per cent of control [30]: 100%; kinase still bound, per cent of control [31]: 100%; kinase still bound, per cent of control [32]: 100%; kinase still bound, per cent of control [33]: 100%; kinase still bound, per cent of control [34]: 16%; kinase still bound, per cent of control [35]: 100%; kinase still bound, per cent of control [36]: 100%; kinase still bound, per cent of control [37]: 100% |
| CC[C@@H]1C(=O)N(C)c2cnc(Nc3ccc(C(=O)NC4CCN(C)CC4)cc3OC)nc2N1C1CCCC1 | 100% | 100% | 100% | 100% | 100% | 100% | 100% | 100% | 100% | 100% | 100% | 100% | 100% | 100% | 100% | 7.2% | 100% | 100% | 100% | 100% | kinase still bound, per cent of control [38]: 100%; kinase still bound, per cent of control [39]: 100%; kinase still bound, per cent of control [21]: 100%; kinase still bound, per cent of control [22]: 100%; kinase still bound, per cent of control [24]: 100%; kinase still bound, per cent of control [25]: 100%; kinase still bound, per cent of control [26]: 100%; kinase still bound, per cent of control [27]: 100%; kinase still bound, per cent of control [40]: 100%; kinase still bound, per cent of control [30]: 100%; kinase still bound, per cent of control [31]: 100%; kinase still bound, per cent of control [32]: 100%; kinase still bound, per cent of control [33]: 100%; kinase still bound, per cent of control [34]: 100%; kinase still bound, per cent of control [35]: 100%; kinase still bound, per cent of control [36]: 100%; kinase still bound, per cent of control [37]: 100% |
| C[C@@H](Oc1cc(-n2cnc3ccc(CN4CCN(C)CC4)cc32)sc1C(N)=O)c1ccccc1C(F)(F)F | 100% | 100% | 100% | 100% | 90% | 100% | 5.8% | 79% | 100% | 100% | 100% | 1.2% | 99% | 100% | 40% | 74% | 100% | 78% | 14% | 9.6% | kinase still bound, per cent of control [38]: 100%; kinase still bound, per cent of control [39]: 93%; kinase still bound, per cent of control [21]: 61%; kinase still bound, per cent of control [22]: 100%; kinase still bound, per cent of control [23]: 100%; kinase still bound, per cent of control [24]: 14%; kinase still bound, per cent of control [25]: 17%; kinase still bound, per cent of control [26]: 100%; kinase still bound, per cent of control [27]: 84%; kinase still bound, per cent of control [28]: 68%; kinase still bound, per cent of control [29]: 0.5%; kinase still bound, per cent of control [30]: 88%; kinase still bound, per cent of control [31]: 57%; kinase still bound, per cent of control [32]: 100%; kinase still bound, per cent of control [33]: 58%; kinase still bound, per cent of control [34]: 100%; kinase still bound, per cent of control [35]: 92%; kinase still bound, per cent of control [36]: 41%; kinase still bound, per cent of control [37]: 100% |
